# Side chains are listed from the residue outwards. * marks the point of attachment. Benzoyl(4-SO2NH2) = NS(=O)(=O)c1ccc(C(=O)*)cc1; Acridin9yl = c1ccc2c(*)c3ccccc3nc2c1; X1 = COc1ccc2cc(C(=O)*)c(=O)oc2c1; Ahx = NCCCCCC(=O)O
# Assays:
# [1] = CD spectroscopy, mean residue ellipticity of the sixteen scaffold polypeptides; format: physicochemical; conditions: error ±1000
# Method: The mean residue ellipticities at 222 nm, [θ]222, □ of the sixteen scaffold polypeptides were recorded at two concentrations, approximately 30 μM and approximately 1 μM, to characterize the state of aggregation, cf.
# The degree of helix formation is related to the monomer-dimer equilibrium since monomers are unordered with low helical content whereas dimers are highly helical. […] While the ^1H NMR spectra have not been recorded of all sequences and of all polypeptide conjugates, it is likely that the sequences presented here are best described as molten globules.
# α-casein = test: Three-step fluorescence titration with α-casein (microtitre plate); format: binding; conditions: polypeptide without PP1; binder in the absence of Zn^2+ ions
# Method: In a preliminary and simple assay executable in microtitre plate format, each of the eight binder candidates at a concentration of 500 nM in 10 mM HEPES buffer and 150 mM NaCl at pH 7.2, equipped with the fluorophor 7-methoxycoumarin-3-carboxylic acid, were titrated with α-casein in three steps (FIG. 8). Concentrations of peptides were determined from the absorbance of the coumarine probe and stock solutions at concentrations of 5 μM were prepared from which aliqiuots were transferred to the microtitre plate. […] The fluorescence emission spectre were recorded in the absence of protein, and in the presence of 500 nM, 1000 nM and 1500 nM protein to determine in a qualitative way whether or not binding was saturated at 500 nM concentration of both binder and protein. Saturation within experimental error at those concentrations is compatible with low nM affinity and tight binding.
# All fluorescence experiments were conducted in 96 well polystyrene plates. All readings were performed by plate reader Molecular Devices Spectra max GEMINI XPS at 25° C. Each plate contained 300 μL of analyte. All polystyrene plates were specially prepared prior the measurements in order to minimize the unspecific binding of the analyte. All wells were filled with 1% aqueous solution of Pluronic and left overnight. […]
# HCAII = target: T1, HCAII (Homo sapiens, UniProt P00918); test: SPR biosensor analysis, immobilized HCAII; format: binding; conditions: ratio of SPR dissociation constants
# T1 construct: purchased Sigma
# Method: The sixteen polypeptide conjugates were also characterized by SPR biosensor analysis (Biacore®, GE Healthcare), using a Biacore® 2000 instrument, Biacore® CM-5 chip and HBS-EP buffer pH 7.4 (Biacore®, GE Healthcare) with addition of 1% DMSO for the interaction studies. Peptide solutions were prepared by dilution in buffer from 20 μM stock solutions in DMSO. HCAII was immobilized on the chip using standard EDC/NHS coupling in Acetate buffer pH 5.5. The binders were allowed to flow over the chip at 7 concentrations in the range from 1 nM to 500 nM and the interactions were evaluated using a 1:1 binding model (BiaEvaluation).
# HCAI and HCAII were immobilized in different flowcells on a CM-5 (Biacore) chip using standard EDC/NHS coupling in Acetate buffer at pH 5.5.
# SPR measurements were performed on a Biacore® 2000 instrument, with the proteins immobilized on a Biacore® CM-5 sensor chips (GE Healthcare). All interaction studies were performed in Biacore® HSB-EP buffer with the addition of 1% (v/v) DMSO. HCAII (Sigma, lyophilized powder) was dissolved in Acetate buffer pH 5.5 to a 2 mg/mL solution. HCAII were conjugated to the surface by EDC/NHS coupling reactions in Acetate buffer pH 5.5. Solutions of the polypeptide binders were prepared in HBS-EP buffer from stock solutions of 20 μM in DMSO and allowed to flow over the surface at 20 μL/min, with blank injections after every series. […]
# [2] = system: human Carbonic Anhydrase (HCAI and HCAII); test: Extraction from lysed blood by binders on nanoparticles (SDS-PAGE, MS); format: binding; conditions: lysed fresh blood, silver stained gel
# Method: The selected binders were resynthesized with an Acm-protected Cys residue in position 24. After removal of the Acm group the binders were immobilized on polystyrene nanoparticles coated with Pluronic® F108-PDS, by incubation for 1 hour in 10 mM Phosphate buffer at pH 7.4 containing 150 mM NaCl. The coating material forms monolayers of PEG equipped with activated disulfide groups that spontaneously react with free thiols under the release of 2-mercaptopyridine (Fromell, K., Hulting, G., Ilichev, A., Larsson, A. & Caldwell, K. C. Analytical Chemistry 79, 8601-07 (2007)).
# Approximately 60 μL of freshly drawn blood was lysed by dilution in 240 μL of distilled water followed by centrifugation to remove cell debris. HCAII resides in the red blood cells and in order to access the protein, cells have to be lysed. The supernatant was isolated and incubated with the functionalized nanoparticles for 30 minutes to allow them to capture HCAII. The particles were washed three times in PBS, and centrifuged after each wash. The binders and the captured proteins were cleaved from the particles using dithiothreitol and separated from the particles by centrifugation. […]
# There are two isoforms of human Carbonic Anhydrase, HCA I and HCAII, in blood. […] The bands from the gel were cut, […] digested and analysed by MALDI-TOF-MS, displaying that the bands contained both isoforms. […]
# Solubility in buffer = conditions: sequence conjugated to a fluorescein probe
# phosphopeptides = conditions: literature; cited from earlier work
# hAChE [3] = target: T2, hAChE (Homo sapiens, UniProt P22303); test: Capture of hAChE from cerebrospinal fluid by binder on nanoparticles (SDS-PAGE, nanoparticle ELISA); format: binding; conditions: binder on Pluronic-coated polystyrene nanoparticles, patient CSF, sandwich ELISA
# T2 construct: monitoring the capturing of hAChE from cerebrospinal fluid (CSF) obtained from Uppsala University hospital; from tissue; host or cells: human cerebrospinal fluid (Uppsala University Hospital)
# Method: The selectivity of 4-C10L17-Ac was determined by monitoring the capturing of hAChE from cerebrospinal fluid (CSF) obtained from Uppsala University hospital. CSF represents a complex biological milieu with several other proteins in high concentration and one of considerable interest with regards to future applications. The selected binder was resynthesized with an acetamidomethyl-(Acm-) protected Cys residue in position 24, instead of an Ala in this position, and attached to polystyrene nanoparticles coated with Pluronic® F108-PDS by disulfide bond formation after Acm deprotection. […] After the washing steps the particles were analyzed by ELISA and gel electrophoresis. […]
# The capture of hAChE by 4-C10L17-Ac was also analyzed by a nanoparticle ELISA based on luminescence. […] After three washing steps the substrate luminol was added and the resulting luminescent signal recorded. […]
# Pluronic F108-PDS (Allvivo Inc.) was adsorbed to polystyrene latex nanoparticles (Bangs laboratories Inc.) by incubating a 2% (w/v) suspension of particles with 10 mg/mL of Pluronic F108-PDS over night at room temperature under constant shaking. […] Aliquots of 8 μL of the supernatants were analyzed by gradient SDS-PAGE gels electrophoresis using NuPAGE® Novex Bis-Tris 4-12% (v/w) gel and MES running buffer (Invitrogen). […]
# hAChE [4] = conditions: known inhibitor, literature; cited from earlier work
# T2 sequence (P22303 32-614): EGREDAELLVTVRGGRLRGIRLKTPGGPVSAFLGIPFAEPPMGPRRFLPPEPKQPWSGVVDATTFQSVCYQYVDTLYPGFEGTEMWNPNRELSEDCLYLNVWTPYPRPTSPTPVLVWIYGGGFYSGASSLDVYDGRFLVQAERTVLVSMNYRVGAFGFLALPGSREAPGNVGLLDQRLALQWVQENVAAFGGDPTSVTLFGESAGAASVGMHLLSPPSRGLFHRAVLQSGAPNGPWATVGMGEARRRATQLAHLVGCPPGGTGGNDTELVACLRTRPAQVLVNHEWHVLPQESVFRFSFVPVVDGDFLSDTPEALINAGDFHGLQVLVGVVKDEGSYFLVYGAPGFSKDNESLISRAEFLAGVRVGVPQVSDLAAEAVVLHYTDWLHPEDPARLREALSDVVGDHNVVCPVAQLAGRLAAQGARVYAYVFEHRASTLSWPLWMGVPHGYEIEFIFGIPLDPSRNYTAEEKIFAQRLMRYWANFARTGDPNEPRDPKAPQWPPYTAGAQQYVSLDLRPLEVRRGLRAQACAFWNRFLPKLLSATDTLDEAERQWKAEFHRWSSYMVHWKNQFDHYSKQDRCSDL
compound,measurement,setting,value
4-C10L17: SEQ ID NO: 8 NAADLEARIKHLRERLKARGPRDAAQLAEQLARAFERFARAG,[θ]222 at high concentration,[1]; high concentration 30-230 μM as listed per peptide,−19500 deg cm^2 dmol^−1
same,[θ]222 at low concentration,[1]; low concentration 1-5 μM as listed per peptide,−11800 deg cm^2 dmol^−1
same,"effect of α-casein on fluorescence emission spectrum, negative controls",α-casein,No effect
Ac-NAADLEARIRHLRERLAARGPRDAAQLAEQLARK([Ahx-Benzoyl(4-SO2NH2)])FEK(X1)FARAG-NH2 (N-terminus and C-terminus assumed) [4-C37L34-B],discrimination between HCAI and HCAII (factor),HCAII,approximately 30
same,proteins extracted from lysed blood,[2],extract Carbonic Anhydrases predominantly
same,solubility in buffer,Solubility in buffer,poorly soluble
"O=C(O)c1cc(CN(Cc2ccccn2)Cc2ccccn2)cc(CN(Cc2ccccn2)Cc2ccccn2)c1 [PP1, 3,5-Bis[[bis(2-pyridylmethyl)amino]methyl]benzoic acid]",dissociation constants for phosphopeptides,phosphopeptides,μM range
Ac-NAADLEAK([Ahx-Benzoyl(4-SO2NH2)])IRHLAEK(X1)LAARGPVDAAQLAEQLARRFEAFARAG-NH2 (C-terminus assumed) [3-C15L8-B],proteins extracted from lysed blood,[2],extract Carbonic Anhydrases predominantly
Ac-NAADLEARIK(X1)HLRERLK([Ahx-Ahx-Acridin9yl])ARGPRDAAQLAEQLARAFERFARAG-NH2 (C-terminus assumed) [4-C10L17-Ac],capture of hAChE from CSF,hAChE [3],selectively extract hAChE from CSF
Nc1c2ccccc2nc2ccccc12 [9-aminoacridine],reported affinity,hAChE [4],30 to 100 nM
